# In PMC10145285, “Diverse Biological Activity of Benzofuroxan/Sterically Hindered Phenols Hybrids” (Pharmaceuticals, 2023):
# Like-named read-outs stand apart in the source and are kept apart here.
# How the values were obtained:
# PC3 = assay: cells; format: cell-based; details: Homo sapiens, PC-3, 48 h, read-out: IC50, PC3
# MCF-7 = assay: cells; format: cell-based, human; details: for IC50: Homo sapiens, MCF7, 48 h, read-out: IC50, MCF-7
# T98G = assay: cells; format: cell-based; details: Homo sapiens, 48 h, read-out: IC50, T98G
# A375 = assay: cells; format: cell-based; details: Homo sapiens, A-375, 48 h, read-out: IC50, A375
# WI38 = assay: cells; format: cell-based; details: Homo sapiens, WI-38, 48 h, read-out: IC50, WI38
# [1] = system: Staphylococcus aureus ATCC 6538P FDA 209P (Sa); assay: Antimicrobial serial microdilution, Sa; format: cell-based; details: for MIC / MBC: Staphylococcus aureus; for MIC: read-out: Minimum Inhibitory Concentration (MIC), Sa; for MBC: read-out: Minimum bactericidal and fungicidal concentrations (MBC), (MFC), Sa
# [2] = system: Bacillus cereus ATCC 10702 (Bc); assay: Antimicrobial serial microdilution, Bc; format: cell-based; details: for MIC: ATCC10702, read-out: Minimum Inhibitory Concentration (MIC), Bc
# [3] = system: Enterococcus faecalis ATCC 29212 (Ef); assay: Antimicrobial serial microdilution, Ef; format: cell-based; details: for MIC: Enterococcus faecalis, ATCC29212, read-out: Minimum Inhibitory Concentration (MIC), Ef
# MRSA-1 = assay: Antimicrobial serial microdilution, MRSA-1; format: cell-based, Staphylococcus aureus; details: for MIC / MBC: Staphylococcus aureus, MRSA; for MIC: read-out: Minimum Inhibitory Concentration (MIC), MRSA-1; for MBC: read-out: Minimum bactericidal and fungicidal concentrations (MBC), (MFC), MRSA-1
# MRSA-2 = assay: Antimicrobial serial microdilution, MRSA-2; format: cell-based, Staphylococcus aureus; details: for MIC: read-out: Minimum Inhibitory Concentration (MIC), MRSA-2
# M-HeLa cells = assay: Intracellular ROS, CellROX Deep Red flow cytometry; format: cell-based, human; details: concentration equal to IC50 cytotoxicity on M-HeLa, 48 h; result in words
# Excerpt: Apoptosis can be induced in various ways, including an increase in the production of reactive oxygen species (ROS) in the cell, with subsequent oxidative stress and destruction of membrane lipids, proteins and nucleic acids. Thus, chemical compounds that disturb the redox balance and lead to the production and accumulation of ROS are potential agents for targeting the transformed cells. To understand the possible synergy between the different components of these hybrid agents, we compared the ROS production for compounds 4c, 5d, starting phenols 2c, 2d and furoxan 3 at the concentration of IC50 cytotoxicity on M-HeLa cells (Figure 4). A significant increase in CellROX® Deep Red fluorescence intensity indicates an increase in ROS production.
# Detection of Intracellular ROS. […] ROS generation was investigated using flow cytometry assay and CellROX® Deep Red flow cytometry kit. For this M-HeLa cells were harvested at 2000 rpm for 5 min and then washed twice with ice-cold PBS, followed by resuspension in 0.1 mL of medium without FBS, to which was added 0.2 μL of CellROX® Deep Red and incubated at 37 °C for 30 min. After three times washing the cells and suspending them in PBS, the production of ROS in the cells was immediately monitored using flow cytometer (Guava easy Cyte, Merck, Rahway, NJ, USA).
# [4] = system: HuTu 80, MCF-7 and human cervical carcinoma cell lines; assay: cells; format: cell-based; details: 120 h, read-out: IC50 range over HuTu 80, MCF-7 and human cervical carcinoma lines
# M-HeLa [5] = system: M-HeLa
# HuTu 80 = assay: cells; details: Homo sapiens, HuTu80, 48 h, read-out: IC50, HuTu 80
# PANC-1 = assay: cells; details: Homo sapiens, PANC-1, 48 h, read-out: IC50, PANC-1
# M-HeLa [6] = assay: cells; details: Homo sapiens, 48 h, read-out: IC50, M-HeLa
# A549 = assay: cells; details: Homo sapiens, A549, 48 h, read-out: IC50, A549
# Chang Liver = assay: cells; details: Homo sapiens, 48 h, read-out: IC50, Chang Liver
# [7] = 500 ng/mL spike, sampled 5, 15, 30 min, 1 and 2 hours; result in words
SMILES,IC50 (PC3),"Times more active than the starting SHP, MCF-7 (MCF-7)",IC50 (MCF-7),IC50 (T98G),IC50 (A375),IC50 (WI38),"Minimum Inhibitory Concentration (MIC), Sa [1]","Minimum Inhibitory Concentration (MIC), Bc [2]","Minimum Inhibitory Concentration (MIC), Ef [3]",IC50 (HuTu 80),IC50 (PANC-1),IC50 (M-HeLa [6]),IC50 (A549),IC50 (Chang Liver),MIC [1],MIC ([2]; Bacillus cereus),"Minimum bactericidal and fungicidal concentrations (MBC), (MFC), Ef [3]",MIC [3],MIC (MRSA-1),"MIC (MRSA-2; Staphylococcus aureus, MRSA)",also measured
"CC(C)OP(=O)(OC(C)C)C(c1cc(C(C)(C)C)c(O)c(C(C)(C)C)c1)c1ccc(Nc2c([N+](=O)[O-])cc([N+](=O)[O-])c3no[n+]([O-])c23)nc1N (centres unmarked) [4c, 7-((6-amino-5-((3,5-di-tert-butyl-4-hydroxyphenyl)(diisopropoxyphosphoryl)methyl)pyridin-2-yl)amino)-4,6-dinitrobenzo[c][1,2,5]oxadiazole 1-oxide]",1.2 ± 1 µM,20 times,1.1 ± 0.1 µM,2.2 ± 0.1 µM,2.9 ± 0.2 µM,2 ± 0.1 µM,-,-,-,0.9 ± 0.07 µM,11.2 ± 0.9 µM,0.9 ± 0.07 µM,0.9 ± 0.08 µM,2.1 ± 0.7 µM,,,,,,,"Minimum Inhibitory Concentration (MIC), MRSA-1 (MRSA-1; serial microdilution, strain resistant to β-lactams and fluoroquinolones): -; Minimum Inhibitory Concentration (MIC), MRSA-2 (MRSA-2; serial microdilution, strain resistant only to β-lactams): -; ROS production (CellROX Deep Red fluorescence intensity) (M-HeLa cells): ROS production significantly exceeds that for the original phenol 2c and furoxan 3; IC50 [4]: 0.9 to 5.9 µM; Times more active than the starting SHP, M-HeLa (M-HeLa [5]): 40 times"
"CC(C)(C)c1cc(C(c2ccc(Nc3c([N+](=O)[O-])cc([N+](=O)[O-])c4no[n+]([O-])c34)nc2N)P(=O)(Oc2ccccc2)Oc2ccccc2)cc(C(C)(C)C)c1O (centres unmarked) [4d, 7-((6-amino-5-((3,5-di-tert-butyl-4-hydroxyphenyl)(diphenoxyphosphoryl)methyl)pyridin-2-yl)amino)-4,6-dinitrobenzo[c][1,2,5]oxadiazole 1-oxide]",11.3 ± 0.9 µM,,9 ± 0.7 µM,7.9 ± 0.7 µM,17 ± 1.4 µM,11.3 ± 1.1 µM,-,-,-,13.1 ± 1.1 µM,11.9 ± 0.9 µM,6.3 ± 0.5 µM,9 ± 0.7 µM,21 ± 2.4 µM,,,,,,,"Minimum Inhibitory Concentration (MIC), MRSA-1 (MRSA-1): -; Minimum Inhibitory Concentration (MIC), MRSA-2 (MRSA-2): -"
"COP(=O)(OC)C(c1cc(C(C)(C)C)c(O)c(C(C)(C)C)c1)c1ccc(Nc2c([N+](=O)[O-])cc([N+](=O)[O-])c3no[n+]([O-])c23)nc1Nc1c([N+](=O)[O-])cc([N+](=O)[O-])c2no[n+]([O-])c12 (centres unmarked) [5a, 7,7’-((3-((3,5-di-tert-butyl-4-hydroxyphenyl)(dimethoxyphosphoryl)methyl)pyridine-2,6-diyl)bis(azanediyl))bis(4,6-dinitrobenzo[c][1,2,5]oxadiazole 1-oxide)]",7.7 ± 0.6 µM,,12.1 ± 1.1 µM,26.8 ± 2.2 µM,21.6 ± 1.8 µM,11.4 ± 0.9 µM,,,,11 ± 0.9 µM,13.5 ± 1.1 µM,7.7 ± 0.6 µM,48.4 ± 3.5 µM,15.1 ± 1.7 µM,125 ± 11 µg/mL,62.5 ± 5.3 µg/mL,-,125 ± 10 µg/mL,250 ± 20 µg/mL,250 ± 20 µg/mL,"MBC [1]: 250 ± 19 µg/mL; Minimum bactericidal and fungicidal concentrations (MBC), (MFC), Bc [2]: -; MBC (MRSA-1): 250 ± 21 µg/mL; Minimum bactericidal and fungicidal concentrations (MBC), (MFC), MRSA-2 (MRSA-2): -"
"CC(C)OP(=O)(OC(C)C)C(c1cc(C(C)(C)C)c(O)c(C(C)(C)C)c1)c1ccc(Nc2c([N+](=O)[O-])cc([N+](=O)[O-])c3no[n+]([O-])c23)nc1Nc1c([N+](=O)[O-])cc([N+](=O)[O-])c2no[n+]([O-])c12 (centres unmarked) [5c, 7,7’-((3-((3,5-di-tert-butyl-4-hydroxyphenyl)(diisopropoxyphosphoryl)methyl)pyridine-2,6-diyl)bis(azanediyl))bis(4,6-dinitrobenzo[c][1,2,5]oxadiazole 1-oxide)]",6.8 ± 0.5 µM,,4.5 ± 0.4 µM,7.7 ± 0.6 µM,9 ± 0.8 µM,5 ± 0.4 µM,,,,3.9 ± 0.3 µM,5 ± 0.3 µM,2.4 ± 0.2 µM,7.7 ± 0.6 µM,4.1 ± 0.8 µM,31.3 ± 2.3 µg/mL,31.3 ± 2.5 µg/mL,-,62.5 ± 5.3 µg/mL,62.5 ± 5.5 µg/mL,250 ± 20 µg/mL,"Minimum bactericidal and fungicidal concentrations (MBC), (MFC), Sa [1]: -; MBC ([2]; Bacillus cereus, ATCC10702, read-out: Minimum bactericidal and fungicidal concentrations (MBC), (MFC), Bc): 250 ± 20 µg/mL; Minimum bactericidal and fungicidal concentrations (MBC), (MFC), MRSA-1 (MRSA-1): -; Minimum bactericidal and fungicidal concentrations (MBC), (MFC), MRSA-2 (MRSA-2): -"
"CC(C)(C)c1cc(C(c2ccc(Nc3c([N+](=O)[O-])cc([N+](=O)[O-])c4no[n+]([O-])c34)nc2Nc2c([N+](=O)[O-])cc([N+](=O)[O-])c3no[n+]([O-])c23)P(=O)(Oc2ccccc2)Oc2ccccc2)cc(C(C)(C)C)c1O (centres unmarked) [5d, 7,7’-((3-((3,5-di-tert-butyl-4-hydroxyphenyl)(diphenoxyphosphoryl)methyl)pyridine-2,6-diyl)bis(azanediyl))bis(4,6-dinitrobenzo[c][1,2,5]oxadiazole 1-oxide)]",5.9 ± 0.4 µM,7.6 times,2.1 µM,4.8 ± 0.4 µM,5.9 ± 0.5 µM,8.4 ± 0.7 µM,,,,4.9 ± 0.3 µM,2.8 µM,2 µM,5.2 ± 0.4 µM,9.2 ± 1.9 µM,15.6 ± 1.2 µg/mL,62.5 ± 5.4 µg/mL,-,62.5 ± 5.2 µg/mL,62.5 ± 5.3 µg/mL,250 ± 19 µg/mL,"MBC [1]: 125 ± 10 µg/mL; Minimum bactericidal and fungicidal concentrations (MBC), (MFC), Bc [2]: -; MBC (MRSA-1): 250 ± 20 µg/mL; MBC (MRSA-2; Staphylococcus aureus, MRSA, read-out: Minimum bactericidal and fungicidal concentrations (MBC), (MFC), MRSA-2): 250 ± 19 µg/mL; IC50 [4]: 0.9 to 5.9 µM; Times more active than the starting SHP, M-HeLa (M-HeLa [5]): 3.7 times; Biostability in whole mice blood (peak area relative to 5 min value) [7]: metabolized, but its rate is quite low"
